Measured values reported in the NIST ThermoML archive (doi:10.1021/je800203s).
± gives the expanded uncertainty stated by the source.

Key:
[1] = Crystal
[2] = Molar enthalpy of transition or fusion; settings: Crystal
[3] = molar heat capacity at constant pressure; settings: 101.33 kPa

COc1ccc(CC#N)cc1OC [(3,4-dimethoxyphenyl)acetonitrile]
Settings	Molar enthalpy of transition or fusion [kcal/mol]	Triple point temperature [K]
[1]	–	337.08 ± 0.15
[2]	5.91 ± 0.0693	–

[3]
Settings	molar heat capacity at constant pressure [J/K/mol]
78.32 K, Crystal	80.52 ± 1.6
80 K, Crystal	82.15 ± 1.6
81.06 K, Crystal	82.37 ± 1.6
84.38 K, Crystal	84.71 ± 1.6
85 K, Crystal	85.39 ± 1.6
87.3 K, Crystal	87.42 ± 1.7
90 K, Crystal	88.81 ± 1.7
90.17 K, Crystal	89.84 ± 1.7
93.05 K, Crystal	91.31 ± 1.8
95 K, Crystal	92.41 ± 1.8
95.92 K, Crystal	93.07 ± 1.8
98.78 K, Crystal	94.96 ± 1.8
100 K, Crystal	96.15 ± 1.8
102.8 K, Crystal	97.78 ± 1.8
105 K, Crystal	100 ± 1.9
106.79 K, Crystal	101.8 ± 1.9
109.62 K, Crystal	103.7 ± 1.9
110 K, Crystal	104 ± 1.9
112.5 K, Crystal	106.5 ± 1.9
115 K, Crystal	108 ± 2
115.38 K, Crystal	108.6 ± 2
118.25 K, Crystal	111 ± 2
120 K, Crystal	112.1 ± 2
121.12 K, Crystal	113.3 ± 2
123.99 K, Crystal	115.6 ± 2.1
125 K, Crystal	116.3 ± 2.1
126.87 K, Crystal	118 ± 2.1
129.71 K, Crystal	120.3 ± 2.1
130 K, Crystal	120.4 ± 2.1
132.55 K, Crystal	122.1 ± 2.1
135 K, Crystal	124.6 ± 2.2
135.4 K, Crystal	124.9 ± 2.2
138.26 K, Crystal	127.8 ± 2.2
140 K, Crystal	128.8 ± 2.2
141.12 K, Crystal	129.7 ± 2.2
143.94 K, Crystal	131.8 ± 2.3
145 K, Crystal	133 ± 2.3
146.78 K, Crystal	134.2 ± 2.3
149.62 K, Crystal	136.7 ± 2.3
150 K, Crystal	137.1 ± 2.3
153.27 K, Crystal	139.5 ± 2.3
155 K, Crystal	141.2 ± 2.4
156.88 K, Crystal	142.9 ± 2.4
159.69 K, Crystal	144.6 ± 2.4
160 K, Crystal	145.3 ± 2.4
162.54 K, Crystal	146.5 ± 2.4
165 K, Crystal	149.3 ± 2.5
165.37 K, Crystal	148.6 ± 2.5
168.16 K, Crystal	151.4 ± 2.5
170 K, Crystal	153.3 ± 2.5
170.93 K, Crystal	153.9 ± 2.5
173.78 K, Crystal	156.3 ± 2.6
175 K, Crystal	157.2 ± 2.6
176.63 K, Crystal	157.8 ± 2.6
179.46 K, Crystal	159.5 ± 2.6
180 K, Crystal	161 ± 2.6
182.27 K, Crystal	162.3 ± 2.6
185 K, Crystal	164.7 ± 2.7
185.06 K, Crystal	164.3 ± 2.7
187.83 K, Crystal	167.4 ± 2.7
190 K, Crystal	168.4 ± 2.7
190.65 K, Crystal	168.8 ± 2.7
195 K, Crystal	172 ± 2.8
196.37 K, Crystal	174.3 ± 2.8
199.23 K, Crystal	175.5 ± 2.8
200 K, Crystal	175.6 ± 2.8
202.71 K, Crystal	177.3 ± 2.8
205 K, Crystal	179 ± 2.8
206.12 K, Crystal	180.1 ± 2.9
208.91 K, Crystal	182.6 ± 2.9
210 K, Crystal	182.5 ± 2.9
211.79 K, Crystal	184.7 ± 2.9
214.67 K, Crystal	185.5 ± 2.9
215 K, Crystal	185.8 ± 2.9
217.53 K, Crystal	187.8 ± 2.9
220 K, Crystal	189.1 ± 3
220.39 K, Crystal	189.8 ± 3
223.24 K, Crystal	192.6 ± 3
225 K, Crystal	192.4 ± 3
226.07 K, Crystal	194.1 ± 3
228.97 K, Crystal	196 ± 3
230 K, Crystal	195.6 ± 3
231.92 K, Crystal	198.1 ± 3.1
234.86 K, Crystal	200.2 ± 3.1
235 K, Crystal	198.8 ± 3.1
237.82 K, Crystal	201.4 ± 3.1
240 K, Crystal	202 ± 3.1
240.78 K, Crystal	203 ± 3.1
244.26 K, Crystal	204.7 ± 3.2
245 K, Crystal	205.2 ± 3.2
247.72 K, Crystal	206 ± 3.2
250 K, Crystal	208.4 ± 3.2
250.62 K, Crystal	206.7 ± 3.2
253.5 K, Crystal	208.8 ± 3.2
255 K, Crystal	211.6 ± 3.2
256.38 K, Crystal	210.7 ± 3.2
259.24 K, Crystal	213.1 ± 3.3
260 K, Crystal	214.9 ± 3.3
262.1 K, Crystal	214.8 ± 3.3
264.94 K, Crystal	216.4 ± 3.3
265 K, Crystal	218.2 ± 3.3
267.89 K, Crystal	218.3 ± 3.3
270 K, Crystal	221.6 ± 3.4
270.93 K, Crystal	221.1 ± 3.4
273.96 K, Crystal	223.6 ± 3.4
275 K, Crystal	225.2 ± 3.4
276.98 K, Crystal	226.3 ± 3.4
279.99 K, Crystal	228.9 ± 3.5
280 K, Crystal	228.8 ± 3.5
283 K, Crystal	231.4 ± 3.5
285 K, Crystal	232.6 ± 3.5
285.98 K, Crystal	234.1 ± 3.5
288.95 K, Crystal	236.8 ± 3.6
290 K, Crystal	236.6 ± 3.6
291.89 K, Crystal	239.8 ± 3.6
294.78 K, Crystal	242.2 ± 3.6
295 K, Crystal	240.8 ± 3.6
297.68 K, Crystal	245.2 ± 3.7
298.15 K, Crystal	243.5 ± 3.6
300 K, Crystal	245.2 ± 3.7
300.71 K, Crystal	247.1 ± 3.7
303.68 K, Crystal	250.1 ± 3.7
305 K, Crystal	249.8 ± 3.7
306.62 K, Crystal	252.2 ± 3.7
309.56 K, Crystal	254.2 ± 3.8
310 K, Crystal	254.8 ± 3.8
312.48 K, Crystal	256 ± 3.8
315 K, Crystal	260 ± 3.8
315.49 K, Crystal	259.8 ± 3.8
318.59 K, Crystal	261.9 ± 3.9
320 K, Crystal	265.6 ± 3.9
321.66 K, Crystal	267 ± 3.9
324.72 K, Crystal	275 ± 4
327.73 K, Crystal	284.8 ± 4.2
330.67 K, Crystal	313 ± 4.5
340 K, Liquid	350.5 ± 5
342.04 K, Liquid	352 ± 5
345 K, Liquid	353.2 ± 5
345.02 K, Liquid	352.7 ± 5
348.08 K, Liquid	354.6 ± 5
350 K, Liquid	356 ± 5.1
351.14 K, Liquid	356.8 ± 5.1
354.19 K, Liquid	358.7 ± 5.1
355 K, Liquid	358.7 ± 5.1
357.24 K, Liquid	360.1 ± 5.1
360 K, Liquid	361.4 ± 5.1
360.28 K, Liquid	361.3 ± 5.1
363.32 K, Liquid	362.6 ± 5.2
365 K, Liquid	363.9 ± 5.2
366.35 K, Liquid	364.4 ± 5.2
369.38 K, Liquid	366.3 ± 5.2
370 K, Liquid	366.3 ± 5.2
372.4 K, Liquid	367.9 ± 5.2
375 K, Liquid	368.7 ± 5.2
375.42 K, Liquid	368.7 ± 5.2
378.43 K, Liquid	370.1 ± 5.2
380 K, Liquid	371 ± 5.3
381.44 K, Liquid	371.6 ± 5.3
384.44 K, Liquid	373 ± 5.3
385 K, Liquid	373.3 ± 5.3
387.44 K, Liquid	374.5 ± 5.3
390 K, Liquid	375.7 ± 5.3
390.43 K, Liquid	376.1 ± 5.3
393.41 K, Liquid	377.4 ± 5.3
395 K, Liquid	378.4 ± 5.4
396.39 K, Liquid	379.4 ± 5.4
399.38 K, Liquid	380.9 ± 5.4
400 K, Liquid	381.5 ± 5.4
